Measured values reported in ChEMBL document CHEMBL3044958, “Synthesis, evaluation of 6,8-dibromo-2-aryl-2,3-dihydroquinolin-4(1H)-ones in MCF-7 (breast cancer) cell lines and their docking studies” (2012).

Tests used:
Format in all cases: functional
[1] = test system: MCF7; assay: Growth inhibition of Homo sapiens (human) MCF-7 cells assessed as cell growth at 10 '-4 M after 48 hr by SRB assay; details: MCF7, 48 h, read-out: Activity
[2] = test system: MCF7; assay: Cytotoxicity against Homo sapiens (human) MCF-7 cells after 48 hr by SRB assay; details: MCF7, 48 h
[3] = test system: MCF7; assay: Growth inhibition of Homo sapiens (human) MCF-7 cells assessed as cell growth at 10 '-7 M after 48 hr by SRB assay; details: MCF7, 48 h, read-out: Activity
[4] = test system: MCF7; assay: Growth inhibition of Homo sapiens (human) MCF-7 cells after 48 hr by SRB assay; details: MCF7, 48 h
[5] = test system: MCF7; assay: Growth inhibition of Homo sapiens (human) MCF-7 cells assessed as cell growth at 10 '-5 M after 48 hr by SRB assay; details: MCF7, 48 h, read-out: Activity
[6] = test system: MCF7; assay: Growth inhibition of Homo sapiens (human) MCF-7 cells assessed as cell growth at 10 '-6 M after 48 hr by SRB assay; details: MCF7, 48 h, read-out: Activity
[7] = test system: MCF7; assay: Growth inhibition of Homo sapiens (human) MCF-7 cells assessed as total cell growth after 48 hr by SRB assay

Row | Structure (SMILES) | growth at 100 µM [1] | LC50 (concentration killing 50% of cells) [2] | growth at 0.1 µM [3] | GI50 [4] | growth at 10 µM [5] | growth at 1 µM [6] | TGI [7]
1 | O=C1CC(c2ccc(Br)cc2)Nc2c(Br)cc(Br)cc21 (stereo unspecified) | -43% | > 100 µM | 69.7% | 151 nM | 12.5% | 69.7% | 2.6 µM
2 | O=C1CC(c2ccc([N+](=O)[O-])cc2)Nc2c(Br)cc(Br)cc21 (stereo unspecified) | -52.3% | > 100 µM | 50.5% | < 100 nM | -4.4% | 8.6% | 0.132 µM
3 | N#Cc1ccc(C2CC(=O)c3cc(Br)cc(Br)c3N2)cc1 (stereo unspecified) | -58.5% | > 100 µM | 43.1% | < 100 nM | -5.1% | 8.2% | 0.126 µM
4 | COc1ccc(C2CC(=O)c3cc(Br)cc(Br)c3N2)cc1 (stereo unspecified) | 7.1% | > 100 µM | 168% | > 100000 nM | 87.8% | 140% | > 100 µM
5 | O=C1CC(c2ccc(O)cc2)Nc2c(Br)cc(Br)cc21 (stereo unspecified) | -45.3% | > 100 µM | 3.7% | < 100 nM | -2% | 9.6% | 0.151 µM
6 | O=C1CC(c2cccc(O)c2)Nc2c(Br)cc(Br)cc21 (stereo unspecified) | 14.7% | > 100 µM | 118% | > 100000 nM | 25.6% | 108% | > 100 µM
7 | CN(C)c1ccc(C2CC(=O)c3cc(Br)cc(Br)c3N2)cc1 (stereo unspecified) | 43% | > 100 µM | 164% | > 100000 nM | 130% | 144% | > 100 µM
8 | COc1cc(C2CC(=O)c3cc(Br)cc(Br)c3N2)cc(OC)c1OC (stereo unspecified) | 34.3% | > 100 µM | 130% | > 100000 nM | 99.6% | 110% | > 100 µM
9 | O=C1CC(c2ccc(F)cc2)Nc2c(Br)cc(Br)cc21 (stereo unspecified) | -48.1% | > 100 µM | 30.1% | < 100 nM | -3.6% | 9.2% | 0.145 µM
10 | O=C1CC(c2ccc(Cl)cc2)Nc2c(Br)cc(Br)cc21 (stereo unspecified) | -40% | > 100 µM | 60.2% | 146 nM | 34.5% | 61.7% | 2.87 µM
11 | COc1cccc2c1C(=O)c1c(O)c3c(c(O)c1C2=O)C[C@@](O)(C(=O)CO)C[C@@H]3O[C@H]1C[C@H](N)[C@H](O)[C@H](C)O1.Cl [DOXORUBICIN HYDROCHLORIDE] | -33.5% |  | 53.5% | < 100 nM | -23.7% | -13.9% | 0.183 µM
